The values that follow come from ChEMBL document CHEMBL4665900, “Novel Pyrido-pyrimidinones and Pteridinones as Endoribonuclease Inositol Requiring Enzyme 1 (IRE1α) Inhibitors for Treating Cancer” (ACS Med Chem Lett, 2020).

A word on the IC50: it is the midpoint of a concentration-inhibition curve.

The target of this experiment is Serine/threonine-protein kinase/endoribonuclease IRE1 (Homo sapiens, UniProt O75460). Put plainly: Inhibition of human His-tagged IRE1alpha expressed in Sf9 insect cells preincubated for 1 hr followed by Alexa fluor 647-labeled probe addition and measured after 1 hr by TR-FRET assay. On the technique in general: In TR-FRET formats the signal depends on donor and acceptor labels being close together.
Serine/threonine-protein kinase/endoribonuclease IRE1, sequence (O75460 whole entry): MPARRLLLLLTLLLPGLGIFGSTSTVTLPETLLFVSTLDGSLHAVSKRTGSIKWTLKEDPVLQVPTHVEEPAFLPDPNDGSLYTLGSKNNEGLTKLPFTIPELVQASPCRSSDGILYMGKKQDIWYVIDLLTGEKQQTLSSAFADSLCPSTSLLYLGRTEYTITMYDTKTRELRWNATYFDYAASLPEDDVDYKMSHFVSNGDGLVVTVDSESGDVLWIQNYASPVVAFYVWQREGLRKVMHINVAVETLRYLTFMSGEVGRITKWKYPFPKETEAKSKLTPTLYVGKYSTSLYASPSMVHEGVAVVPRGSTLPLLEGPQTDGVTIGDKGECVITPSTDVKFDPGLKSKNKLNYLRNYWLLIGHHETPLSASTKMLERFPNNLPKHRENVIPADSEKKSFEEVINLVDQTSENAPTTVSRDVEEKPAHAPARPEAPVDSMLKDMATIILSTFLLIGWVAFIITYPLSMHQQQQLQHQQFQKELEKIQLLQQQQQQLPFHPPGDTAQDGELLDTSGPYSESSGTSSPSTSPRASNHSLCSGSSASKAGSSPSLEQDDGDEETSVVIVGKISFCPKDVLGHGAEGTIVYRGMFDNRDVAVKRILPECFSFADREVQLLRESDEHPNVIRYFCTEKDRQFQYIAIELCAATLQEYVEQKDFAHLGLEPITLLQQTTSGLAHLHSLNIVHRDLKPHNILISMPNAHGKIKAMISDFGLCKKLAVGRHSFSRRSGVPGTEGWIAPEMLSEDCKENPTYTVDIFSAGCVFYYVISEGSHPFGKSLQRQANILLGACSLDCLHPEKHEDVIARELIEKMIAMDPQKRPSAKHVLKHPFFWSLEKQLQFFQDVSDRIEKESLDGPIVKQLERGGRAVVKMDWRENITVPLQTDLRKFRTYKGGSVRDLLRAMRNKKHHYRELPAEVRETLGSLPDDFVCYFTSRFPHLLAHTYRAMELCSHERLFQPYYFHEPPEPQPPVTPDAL

Compound `CC(C)n1c(=O)c(-c2cc(F)c(NS(=O)(=O)CC3(C(F)(F)F)CC3)c(F)c2)nc2cnc(N[C@H]3CC[C@H](N(C)C)CC3)nc21` registered an IC50 of 0.1 nM.
The compound `COCCN(C)[C@H]1CC[C@H](Nc2ncc3cc(-c4ccc(NS(=O)(=O)Cc5ccc(F)cc5)c(F)c4)c(=O)n(C(C)C)c3n2)CC1` returned an IC50 of 0.05 nM.
In turn, `CC(C)n1c(=O)c(-c2c(F)cc(NS(=O)(=O)Cc3ccc(F)cc3)cc2F)cc2cnc(N[C@H]3CC[C@H](N(C)C)CC3)nc21` returned an IC50 of 0.08 nM. Compared with the last compound, the IC50 is about 1.6-fold higher.
The compound `Cc1ccc(CS(=O)(=O)Nc2ccc(-c3nc4cnc(N[C@@H]5CNC[C@@H](F)C5)nc4n(C(C)C)c3=O)cc2F)c(C#N)c1` gave an IC50 of 0.09 nM.
To `COc1cccc(CS(=O)(=O)Nc2c(F)cc(-c3cc4cnc(N[C@@H]5CNC[C@@H](F)C5)nc4n(C(C)C)c3=O)c(F)c2F)c1` belongs 0.11 nM; to `CC(C)n1c(=O)c(-c2ccc(NS(=O)(=O)Cc3ccc(C#N)cc3)c(F)c2)nc2cnc(N[C@@H]3CNC[C@@H](F)C3)nc21`, 0.1 nM.
